In patent US20110287936A1, “GENE SWITCH COMPOSITIONS AND METHODS OF USE” (priority 2010, published 2011):

Legend:
[1] = system: tetA promoter (PtetA)-lacZ reporter in E. coli strain KM3; assay type: cell-based; conditions: L1 hits, 20 μg/ml
[2] = system: 35S PRO:3xTetOp:dsRED reporter with ESR(L13-2-23); assay: Rice callus RFP induction by sulfonylureas; assay type: in vivo; conditions: for RFP Score: 20 hours, rice callus
Method: Mature seed of rice were surface sterilized and placed on callus induction medium (Chu (N6) salts, Eriksson's vitamins, 0.5 mg/L thiamine, 2 mg/L 2,4-D, 2.1 g/L proline, 30 g/L sucrose, 300 mg/L casein hydrolysate, and 100 mg/L myo-inositol, adjusted to pH 5.8). After one week, callus was transformed using Agrobacterium LBA4404, delivering the following T-DNA: • RB-35S PRO:3xTetOp:dsRED::pinII+35S PRO::Adh intron::ESR(L13-2-23)::UBI TERM+Sb-ALS PRO::HRA::pinII-LB
Transgenic events were visually selected as […] calli growing on 100 PPB ethametsulfuron. […] Non-fluorescing events were then transferred to plates of medium containing varying amounts of sulfonylureas (SU). For the control, there was no SU, with additional treatments containing 100 or 500 ppb chlorsulfuron, and 100 or 500 ppb ethametsulfuron, After 20 hours of the induction treatment, micrographs were taken at the same exposure and scored (see Example 7 for scoring criteria) as shown in the table below
(§1) The BSV::tetOp promoter and the MP1::tetOp promoter were synthesized and cloned into expression cassettes driving expression of the DsRED (RFP) gene for testing. For all comparisons of RFP expression, side-by-side comparisons were made within experiment by taking micrographs of the tissue at the same exposure and qualitatively ranking fluorescence intensity, assigning the scores in the table below. The DsRED protein is very stable (has a relatively long half-life), and even with low expression levels in the cell can accumulate over time.

[3] = system: BSV(AY) PRO::tetOp::ODP2 with ESR(3E3); assay: Inducible callus initiation from maize leaf pieces; assay type: in vivo; conditions: 100 mg/L chlorsulfuron, two weeks
Method: Immature maize embryos from maize inbred PHN46 were transformed as describe in Example 5D using Agrobacterium comprising the following: • RB-BSV(AY) PRO::tetOp::Adh1 Intron::ODP2::pinII+35S ENH::ALS PRO::HRA::pinII+Ubi Pro::ESR(3E3)::pinII-LB.
Events were selected on 100 μg/l chlorsulfuron, and plantlets were regenerated in the absence of the SU compound. When the plantlets were approximately 20 cm tall, the leaves were cut into approximately 2-4 mm cross-sections and placed on embryogenic culture medium+/−100 mg/L chlorsulfuron.

[4] = system: BSV:tetOp or 35S:tetOp::dsRed with Ubi:ESR(3E3); assay: Maize callus RFP de-repression on chlorsulfuron selection; assay type: in vivo
Description: as §1
Maize immature embryos were transformed with Agrobacterium as generally described in Example 5D. Transformants were generated that contained one of the two T-DNAs shown below: • RB-BSV:tetOp::Adh Intron::dsRed+ALS:HRA+Ubi:ESR(3E3)-LB • RB-35S:tetOp::Adh intron::dsRed+ALS:HRA+Ubi::ESR(3E3)-LB
Selection of transgenic events was performed using 30, 100, or 500 μg/L chlorsulfuron.

[5] = system: 35S/TripleOp/Pro::RFP reporter; assay: Maize callus and seedling RFP de-repression; assay type: in vivo; conditions: 1 mg/l doxycycline; callus and plants with UBI::TetR expression cassette
[6] = system: 35S PRO:tetOp::moCRE with ESR(L13-2-23), loxP AmCYAN/ZsYELLOW reporter; assay: Ethametsulfuron-induced Cre excision in rice callus; conditions: rice calli, 250 μg/L ethametsulfuron, one week
Method: (§2) Herbicide-resistant, blue fluorescent co-transformed calli were recovered and tested for SU-inducible excision. Calli were split onto media+/−250 μg/L ethametsulfuron.

[7] = system: 35S PRO:tetOp::moCRE with ESR(L13-2-23), loxP AmCYAN/ZsYELLOW reporter; assay: Ethametsulfuron-induced Cre excision in maize callus; conditions: maize calli, 250 μg/L ethametsulfuron, one week
Method: as §2

[8] = system: 35S PRO:tetOp::moCRE with ESR(L13-2-23), lox66/lox71 AmCYAN/ZsYELLOW reporter; assay: Ethametsulfuron-induced Cre inversion in maize callus; conditions: 250 μg/L ethametsulfuron, one week

## CCOC(=O)c1ccccc1S(=O)(=O)NC(=O)Nc1nc(Cl)cc(OC)n1 [chlorimuron, Chlorimuron-ethyl]
[1]
  potency as activator compared with Harmony®: more potent activators than the starting ligand Harmony®

## COc1nc(C)nc(NC(=O)NS(=O)(=O)c2ccccc2Cl)n1 [chlorsulfuron, 2 chloro N((4 methoxy 6 methy 1,3,5 triazine 2 yl)aminocarbonyl)benzenesulfonamide]
[1]
  potency as activator compared with Harmony®: more potent activators than the starting ligand Harmony®
[2]; 100 ppb
  RFP Score: 0-1
[2]; 500 ppb
  RFP Score: 2-3
[3]
  callus initiation from leaf pieces: producing callus from the leaf segments
[4]; 30 μg/l, six weeks
  RFP Score: 0
[4]; 100 μg/l, six weeks
  RFP fluorescence: small sectors of RFP fluorescence were observed
[4]; 500 μg/l, six weeks
  RFP fluorescence: large segments of the calli were brightly fluorescing
[4]; in vivo
  activity as inducer of the ethametsulfuron repressor, fold less: approximately 10 fold

## C[C@H]1c2cccc(O)c2C(=O)C2=C(O)[C@]3(O)C(=O)C(C(N)=O)=C(O)[C@@H](N(C)C)[C@@H]3[C@@H](O)[C@@H]21 [doxycycline]
[5]
  induction period: 5 to 6 days

## CCOc1nc(NC)nc(NC(=O)NS(=O)(=O)c2ccccc2C(=O)OC)n1 [ethametsulfuron, Ethametsulfuron-methyl]
[1]
  potency as activator compared with Harmony®: more potent activators than the starting ligand Harmony®
[2]; 100 and 500 ppb
  level of RFP induction, comparison of ligands: induced to a greater level than chlorsulfuron
[2]; 100 ppb
  RFP Score: 1-2
[2]; 500 ppb
  RFP Score: 4
[6]
  SU-inducible excision: yellow fluorescent sectors were observed
[7]
  SU-inducible excision: yellow fluorescent sectors were observed
[8]
  SU-inducible inversion: sectors exhibiting only yellow fluorescent
